tested on: HIV-1 (JRCSF); assay: Anti-HIV activity in MaRBLE cells infected with HIV-1 (JRCSF), luciferase readout; type: cell-based; conditions: Human immunodeficiency virus 1, 168 h; MaRBLE cells (human T lymphocyte-derived HPB-M(a)) infected with HIV-1 (JRCSF); 7 days culture; rate of viral proliferation by luciferase activity; read-out: Anti-HIV activity IC50
Method: This test was conducted with reference to Journal of Clinical Microbiology, 2007, Vol. 45, p. 477-487.
The anti-HIV activity was evaluated using MaRBLE cells in which a luciferase gene to be expressed under the control of HIV-1 LTR and a CCR5 gene, etc. were introduced in human T lymphocyte-derived HPB-M(a).
A fresh medium or each appropriately diluted test compound was dispensed to 96-well plates to prepare drug solution-containing plates.
The MaRBLE cells were suspended in RPMI1640 containing 10% FCS (fetal calf serum) and penicillin/streptomycin and infected with HIV-1 (JRCSF). Then, the cells were inoculated to the drug solution-containing plates (1×10^5 cells/well). The same number of uninfected cells were inoculated as a control group to the drug solution-containing plates.
After culture at 37° C. for 7 days in a 5% CO2 atmosphere, the intracellular luciferase activity was measured using Steady-Glo Luciferase assay system (Promega Corp.).
The rate of viral proliferation was determined according to the following expression:
Rate of viral proliferation(%)=(A/B)×100
A=(Firefly luciferase activity of the compound-supplemented well)−(Firefly luciferase activity of the uninfected cells)
B=(Firefly luciferase activity of the compound-free well)−(Firefly luciferase activity of the uninfected cells)
IC50 of the compound was calculated by a plot with concentration as the logarithm and the rate of viral proliferation as the real part using the FORECAST function (linear regression method) of Microsoft Office Excel 2003.

Row | Structure (SMILES) | IC50
1 | COc1ccc(CNc2cc(=O)n(O)c3ncncc23)cc1 [Example 1, 8-hydroxy-5-((4-methoxybenzyl)amino)pyrido[2,3-d]pyrimidin-7(8H)-one] | 110 nM
2 | O=c1cc(NCc2ccccc2)c2cncnc2n1O [Example 2, 5-(benzylamino)-8-hydroxypyrido[2,3-d]pyrimidin-7(8H)-one] | 120 nM
3 | O=c1cc(NCc2ccc3ccccc3c2)c2cncnc2n1O [Example 3, 8-hydroxy-5-((2-naphthylmethyl)amino)pyrido[2,3-d]pyrimidin-7(8H)-one] | 190 nM
4 | O=c1cc(NCC2CCCCC2)c2cncnc2n1O [Example 4, 5-((cyclohexylmethyl)amino)-8-hydroxypyrido[2,3-d]pyrimidin-7(8H)-one] | 410 nM
5 | O=c1cc(NCc2ccccn2)c2cncnc2n1O [Example 5, 8-hydroxy-5-(((pyridin-2-yl)methyl)amino)pyrido[2,3-d]pyrimidin-7(8H)-one] | 210 nM
6 | O=c1cc(NCc2ccc(F)cc2F)c2cncnc2n1O [Example 6, 5-((2,4-difluorobenzyl)amino)-8-hydroxypyrido[2,3-d]pyrimidin-7(8H)-one] | 180 nM
7 | CC(Nc1cc(=O)n(O)c2ncncc12)c1ccccc1 (stereo not shown) [Example 7, 8-hydroxy-5-((1-phenylethyl)amino)pyrido[2,3-d]pyrimidin-7(8H)-one] | 170 nM
8 | O=c1cc(NC2CCCCC2)c2cncnc2n1O [Example 8, 5-(cyclohexylamino)-8-hydroxypyrido[2,3-d]pyrimidin-7(8H)-one] | 220 nM
9 | O=c1cc(NC2Cc3ccccc3C2)c2cncnc2n1O [Example 10] | 530 nM
10 | O=c1cc(Nc2ccccc2)c2cncnc2n1O [Example 16, 5-anilino-8-hydroxypyrido[2,3-d]pyrimidin-7(8H)-one] | 280 nM
11 | O=c1cc(NCCc2ccccc2)c2cncnc2n1O [Example 17, 8-hydroxy-5-((2-phenylethyl)amino)pyrido[2,3-d]pyrimidin-7(8H)-one] | 690 nM
12 | O=c1cc(NCc2cccnc2)c2cncnc2n1O [Example 18, 8-hydroxy-5-((pyridin-3-ylmethyl)amino)pyrido[2,3-d]pyrimidin-7(8H)-one] | 230 nM
13 | Cc1ncnc2c1c(O)cc(=O)n2O [Example 21, 5,8-dihydroxy-4-methylpyrido[2,3-d]pyrimidin-7(8H)-one] | 880 nM
14 | Cc1ncnc2c1c(NCc1ccccc1)cc(=O)n2O [Example 22, 5-(benzylamino)-8-hydroxy-4-methylpyrido[2,3-d]pyrimidin-7(8H)-one] | 47 nM
15 | Cc1ncnc2c1c(NCc1cccc(C(F)(F)F)c1)cc(=O)n2O [Example 28, 8-hydroxy-4-methyl-5-((3-(trifluoromethyl)benzyl)amino)pyrido[2,3-d]pyrimidin-7(8H)-one] | 43 nM
16 | Cc1ncnc2c1c(NCc1cccc(N(C)C)c1)cc(=O)n2O [Example 29, 5-((3-(dimethylamino)benzyl)amino)-8-hydroxy-4-methylpyrido[2,3-d]pyrimidin-7(8H)-one] | 50 nM
17 | Cc1ncnc2c1c(NCc1ccc(N(C)C)cc1)cc(=O)n2O [Example 30, 5-((4-(dimethylamino)benzyl)amino)-8-hydroxy-4-methylpyrido[2,3-d]pyrimidin-7(8H)-one] | 76 nM
18 | COc1cccc(CNc2cc(=O)n(O)c3ncnc(C)c23)c1 [Example 31, 8-hydroxy-5-((3-methoxybenzyl)amino)-4-methylpyrido[2,3-d]pyrimidin-7(8H)-one] | 230 nM
19 | COc1ccc(CNc2cc(=O)n(O)c3ncnc(C)c23)cc1 [Example 32, 8-hydroxy-5-((4-methoxybenzyl)amino)-4-methylpyrido[2,3-d]pyrimidin-7(8H)-one] | 29 nM
20 | COc1ccccc1CNc1cc(=O)n(O)c2ncnc(C)c12 [Example 33, 8-hydroxy-5-((2-methoxybenzyl)amino)-4-methylpyrido[2,3-d]pyrimidin-7(8H)-one] | 53 nM
21 | Cc1ncnc2c1c(NCc1cccc(C#N)c1)cc(=O)n2OCc1ccccc1 [Example 34, 3-(((8-(benzyloxy)-4-methyl-7-oxo-7,8-dihydropyrido[2,3-d]pyrimidin-5-yl)amino)methyl)benzonitrile] | 65 nM
22 | Cc1ncnc2c1c(NCC1CCCCC1)cc(=O)n2O [Example 35, 5-((cyclohexylmethyl)amino)-8-hydroxy-4-methylpyrido[2,3-d]pyrimidin-7(8H)-one] | 68 nM

Row | Structure (SMILES) | IC50
23 | Cc1ncnc2c1c(NCc1ccccc1F)cc(=O)n2O [Example 36, 5-((2-fluorobenzyl)amino)-8-hydroxy-4-methylpyrido[2,3-d]pyrimidin-7(8H)-one] | 86 nM
24 | Cc1ncnc2c1c(NC1CCCCC1)cc(=O)n2O [Example 37, 5-(cyclohexylamino)-8-hydroxy-4-methylpyrido[2,3-d]pyrimidin-7(8H)-one] | 110 nM
25 | COc1ccc(CNc2cc(=O)n(O)c3ncnc(C)c23)c(OC)c1 [Example 38, 5-((2,4-dimethoxybenzyl)amino)-8-hydroxy-4-methylpyrido[2,3-d]pyrimidin-7(8H)-one] | 42 nM
26 | CCN(CC)c1ccc(CNc2cc(=O)n(O)c3ncnc(C)c23)cc1 [Example 39, 5-((4-(diethylamino)benzyl)amino)-8-hydroxy-4-methylpyrido[2,3-d]pyrimidin-7(8H)-one] | 62 nM
27 | Cc1ncnc2c1c(NCc1ccc(N(C)C)nc1)cc(=O)n2O [Example 40, 5-(((6-(dimethylamino)pyridin-3-yl)methyl)amino)-8-hydroxy-4-methylpyrido[2,3-d]pyrimidin-7(8H)-one] | 48 nM
28 | Cc1ncnc2c1c(NCc1cccnc1N(C)C)cc(=O)n2O [Example 41, 5-(((2-(dimethylamino)pyridin-3-yl)methyl)amino)-8-hydroxy-4-methylpyrido[2,3-d]pyrimidin-7(8H)-one] | 48 nM
29 | Cc1ncnc2c1c(NCc1ccc(C#N)cc1)cc(=O)n2O [Example 42, 4-(((8-hydroxy-4-methyl-7-oxo-7,8-dihydropyrido[2,3-d]pyrimidin-5-yl)amino)methyl)benzonitrile] | 72 nM
30 | Cc1ccc(CNc2cc(=O)n(O)c3ncnc(C)c23)cc1 [Example 43, 8-hydroxy-4-methyl-5-((4-methylbenzyl)amino)pyrido[2,3-d]pyrimidin-7(8H)-one] | 39 nM
31 | Cc1ncnc2c1c(NCc1ccc(Cl)cc1)cc(=O)n2O [Example 44, 5-((4-chlorobenzyl)amino)-8-hydroxy-4-methylpyrido[2,3-d]pyrimidin-7(8H)-one] | 29 nM
32 | Cc1ncnc2c1c(NCc1cccc(OC(F)(F)F)c1)cc(=O)n2O [Example 45, 8-hydroxy-4-methyl-5-((3-(trifluoromethoxy)benzyl)amino)pyrido[2,3-d]pyrimidin-7(8H)-one] | 170 nM
33 | Cc1ccccc1CNc1cc(=O)n(O)c2ncnc(C)c12 [Example 46, 8-hydroxy-4-methyl-5-((2-methylbenzyl)amino)pyrido[2,3-d]pyrimidin-7(8H)-one] | 40 nM
34 | Cc1ncnc2c1c(NCc1cccc(Cl)c1)cc(=O)n2O [Example 47, 5-((3-chlorobenzyl)amino)-8-hydroxy-4-methylpyrido[2,3-d]pyrimidin-7(8H)-one] | 59 nM
35 | Cc1ncccc1CNc1cc(=O)n(O)c2ncnc(C)c12 [Example 48, 8-hydroxy-4-methyl-5-(((2-methylpyridin-3-yl)methyl)amino)pyrido[2,3-d]pyrimidin-7(8H)-one] | 93 nM
36 | Cc1ncnc2c1c(NCc1ccc3c(c1)OCO3)cc(=O)n2O [Example 49] | 61 nM
37 | Cc1ccc(CNc2cc(=O)n(O)c3ncnc(C)c23)cn1 [Example 50, 8-hydroxy-4-methyl-5-(((6-methylpyridin-3-yl)methyl)amino)pyrido[2,3-d]pyrimidin-7(8H)-one] | 110 nM
38 | Cc1ncnc2c1c(NCc1cncc(F)c1)cc(=O)n2O [Example 51, 5-(((5-fluoropyridin-3-yl)methyl)amino)-8-hydroxy-4-methylpyrido[2,3-d]pyrimidin-7(8H)-one] | 97 nM
39 | Cc1ncnc2c1c(NCc1ccc3c(c1)OCCO3)cc(=O)n2O [Example 52, 5-(((2,3-dihydro-1,4-benzodioxin-6-yl)methyl)amino)-8-hydroxy-4-methylpyrido[2,3-d]pyrimidin-7(8H)-one] | 20 nM
40 | Cc1ncnc2c1c(NC(C)c1cccnc1)cc(=O)n2O (stereo not shown) [Example 53, 8-hydroxy-4-methyl-5-((1-(pyridin-3-yl)ethyl)amino)pyrido[2,3-d]pyrimidin-7(8H)-one] | 80 nM
41 | Cc1ccncc1CNc1cc(=O)n(O)c2ncnc(C)c12 [Example 54, 8-hydroxy-4-methyl-5-(((4-methylpyridin-3-yl)methyl)amino)pyrido[2,3-d]pyrimidin-7(8H)-one] | 110 nM
42 | Cc1ncnc2c1c(NCc1nc3ccccc3[nH]1)cc(=O)n2O [Example 55, 5-(((1H-benzimidazol-2-yl)methyl)amino)-8-hydroxy-4-methylpyrido[2,3-d]pyrimidin-7(8H)-one] | 450 nM
43 | Cc1ncnc2c1c(NCc1ccc(N3CCCCC3)nc1)cc(=O)n2O [Example 56, 8-hydroxy-4-methyl-5-(((6-(piperidin-1-yl)pyridin-3-yl)methyl)amino)pyrido[2,3-d]pyrimidin-7(8H)-one] | 900 nM

From patent US20150018546A1, “HETEROCYCLIC COMPOUND HAVING ANTI-HIV ACTIVITY” (TOYAMA CHEMICAL CO., LTD., priority 2012, published 2015)
